Results on 41 molecules are retold here after patent US7625948B2, “Ester compound and medicinal use thereof” (Japan Tobacco Inc., priority 2002, dated 2009).

pIC50: −log10 of the molar value.

This experiment relates to HepG2 cells. As to the kind of experiment: Test Example 2: inhibition of apolipoprotein B secretion from HepG2 cells, ELISA (also used for metabolites in Test Example 8). It counts as cell-based. The following applies: Homo sapiens, 24 hours, apo B in supernatant by ELISA, read-out: Test Example 2 Inhibition of apo B secretion IC50. As for the experimental part:
Inhibition of Apolipoprotein B Secretion from HepG2 Cells
HepG2 cells were suspended in Dulbecco's Modified Eagle's Medium (DMEM) (containing 10% fetal bovine serum, 100 units/mL penicillin and 100 μg/mL streptomycin), and placed on a 96-well plate (4×10^4 cells/well), then incubated for 24 hours. After removal of the medium, DMEM was replaced by a medium containing a sample dissolved in DMSO or a medium containing DMSO (concentration of DMSO: 0.5%) and incubation was further performed for 24 hours, after which the supernatant was recovered, and concentration of apo B in the supernatant was assayed by Enzyme-Linked Immunosorbent Assay (ELISA)
ELISA was carried out as follows. Anti-human apo B monoclonal antibody (0.5 μg/well) diluted with a solution of sodium carbonate in sodium bicarbonate buffer (50 mL, pH 9.6) was placed in a 96-well plate for ELISA, and allowed to stand at room temperature for 15 hours. After washing the plate, a blocking solution (250 μL/well) was placed in the well, and allowed to stand at room temperature for 1.5 hours. After washing the plate, a standard and a sample (100 μL/well) were placed in the well and allowed to stand at room temperature for one hour. The standard was prepared by adjusting the concentration of the purified human apo B with the DMEM to 0 to 1000 ng/mL. After washing the plate, an anti-human apo B polyclonal antibody labeled with a horse radish peroxidase which was diluted in 1:1000 with DEME (100 μL/well), and allowed to stand at room temperature for one hour. After washing the plate, 2,2-azinobis(3-ethylbenzothiazoline-6-sulfonic acid) solution (100 μL/well) was placed in the well, and allowed to stand at room temperature for one hour. The reaction was stopped by addition of 2% oxalic acid (100 μL/well), and absorbency at 405 nm was measured. Concentration of apo B in the sample was calculated on the basis of a standard curve of the standard. Inhibition rate (%) was calculated from the assayed values in accordance with the following equation.
Inhibition rate (%)=100×(1 minus (concentration of apo B in sample group/concentration of apo B in DMSO group).
Based on the above equation, 50% inhibition concentration (IC50) was determined.
Inhibitory Activity on MTP and apo B Secretion Inhibition by Metabolites
In a similar manner to Test Examples 1 and 2, the activity of metabolites was assayed.
(In an ELISA, binding on a coated surface is turned into a signal by an enzyme label.)
By pIC50 is commonly meant the negative decadic logarithm of the IC50, by convention in mol/L. Turning to `CCOC(=O)C(COC(=O)Cc1ccc(NC(=O)c2cccc(F)c2-c2ccc(C(F)(F)F)cc2)c(C(=O)N(C)C)c1)(C(=O)OCC)c1ccccc1` [Example 2-80], the pIC50 was 9.10.
As for `CCOC(=O)C(COC(=O)CCc1ccc(NC(=O)c2ccccc2-c2ccc(C(F)(F)F)cc2)c(C(=O)N(C)C)c1)(C(=O)OCC)c1ccccc1` [Example 9-5, 2-(3-{3-Dimethylcarbamoyl-4-[(4′-trifluoromethylbiphenyl-2-carbonyl)-amino]-phenyl}-propionyloxymethyl)-2-phenyl-malonic acid diethyl ester], the pIC50 is 8.51.
Consider `CCOC(=O)C(COC(=O)Cc1ccc(NC(=O)c2ccccc2-c2ccc(C(F)(F)F)cc2)c(C(=O)N(C)C)c1)(C(=O)OCC)C1CCCC1` [Example 2-40], for which the pIC50 is 9.00.
In the case of `CCOC(=O)C(COC(=O)Cc1ccc(NC(=O)c2ccccc2-c2ccc(C(F)(F)F)cc2)c(C(=O)N(C)C)c1)(C(=O)OCC)c1ccccc1C` [Example 2-68], the pIC50 is 8.65.
Then `CCOC(=O)C(COC(=O)Cc1ccc(NC(=O)c2ccccc2-c2ccc(C(F)(F)F)cc2)c(C(=O)N(CC)CC)c1)(C(=O)OCC)c1ccccc1` [Example 2-10], with 8.85; and `CCOC(=O)C(COC(=O)Cc1ccc(NC(=O)c2ccccc2-c2ccc(C(F)(F)F)cc2)c(-c2nc(C)cs2)c1)(C(=O)OCC)c1ccccc1` [Example 9-23], with 8.06; and `CCCN(C)C(=O)c1cc(CC(=O)OCC(C(=O)NCC)(C(=O)NCC)c2ccccc2)ccc1NC(=O)c1ccccc1-c1ccc(C(F)(F)F)cc1` [Example 2-19], with 7.59.
Then `CCOC(=O)C(COC(=O)Cc1ccc(NC(=O)c2ccccc2-c2ccc(F)cc2)c(C(=O)N(C)C)c1)(C(=O)OCC)c1ccccc1` [Example 2-33], with 7.89; and `CCOC(=O)C(COC(=O)Cc1ccc(NC(=O)c2ccccc2-c2ccc(C(F)(F)F)cc2)c(C(=O)N(C)C)c1)(C(=O)OCC)c1ccc(OC)cc1` [Example 2-77], with 8.56.
Then `CCOC(=O)C(COC(=O)Cc1ccc(NC(=O)c2ccccc2-c2ccc(C(F)(F)F)cc2)c(C(=O)N(C)C)c1)(C(=O)OCC)C(=O)OCC` [Example 2-118], with 7.31.
Regarding `CCNC(=O)C(COC(=O)Cc1ccc(NC(=O)c2ccccc2-c2ccc(C(F)(F)F)cc2)c(C(=O)N2CCCCC2)c1)(C(=O)NCC)c1ccccc1` [Example 2-16], the pIC50 is 8.57.
Then `CCOC(=O)C(COC(=O)Cc1ccc(NC(=O)c2ccccc2-c2ccc(C(F)(F)F)cc2)c(Cl)c1)(C(=O)OCC)c1ccccc1` [Example 1-84], with 8.36; and `CCNC(=O)C(COC(=O)Cc1ccc2c(c1)oc(=O)n2C(=O)c1ccccc1-c1ccc(C(F)(F)F)cc1)(C(=O)NCC)c1ccccc1` [Example 9-3, [2-Oxo-3-(4′-trifluoromethylbiphenyl-2-carbonyl)-2,3-dihydrobenzoxazol-6-yl]acetic acid 2,2-bisethylcarbamoyl-2-phenylethyl ester], with 7.23; and `CCOC(=O)C(COC(=O)Cc1ccc(NC(=O)c2ccccc2-c2ccc(C(F)(F)F)cc2)c(C(C)C)c1)(C(=O)OCC)c1ccccc1` [Example 1-80], with 8.09.
Then `CCOC(=O)C(CCOC(=O)Cc1cccc(NC(=O)c2ccccc2-c2ccc(C(F)(F)F)cc2)c1OCC)(C(=O)OCC)c1ccccc1` [Example 5-15], with 8.19; and `CCOC(=O)C(COC(=O)Cc1ccc(NC(=O)c2ccccc2-c2ccc(C(F)(F)F)cc2)c(-c2ccccc2)c1)(C(=O)OCC)c1ccccc1` [Example 9-24], with 8.10; and `CCNC(=O)C(CCOC(=O)Cc1cccc(NC(=O)c2ccccc2-c2ccc(C(F)(F)F)cc2)c1OCC)(C(=O)NCC)c1ccccc1` [Example 5-14], with 9.47.
Then `CCOC(=O)C(COC(=O)Cc1ccc(NC(=O)c2ccccc2Oc2ccc(C(F)(F)F)cc2)c(C(=O)N(C)C)c1)(C(=O)OCC)c1ccccc1` [Example 2-99], with 7.72.
Regarding `CC(C)N[C@@H](COC(=O)Cc1ccc(NC(=O)c2ccccc2-c2ccc(C(F)(F)F)cc2)c(C(=O)N(C)C)c1)c1ccccc1` [Example 2-29], the pIC50 is 7.04.
Then `CCOC(=O)C(COC(=O)Cc1ccc(NC(=O)c2ccccc2-c2ccc(C(F)(F)F)cc2)c(C(=O)N(C)C)c1)(C(=O)OCC)c1ccsc1` [Example 2-106], with 9.36; and `CCOC(=O)C(COC(=O)Cc1ccc(NC(=O)c2cccc(Cl)c2-c2ccc(C(F)(F)F)cc2)c(C(=O)N(C)C)c1)(C(=O)OCC)c1ccccc1` [Example 2-79], with 8.89.
For `CCOC(=O)C(COC(=O)Cc1ccc(NC(=O)c2ccccc2-c2ccc(C(F)(F)F)c(Cl)c2)c(C(=O)N(C)C)c1)(C(=O)OCC)c1ccccc1` [Example 2-62], the pIC50 is 9.43.
Then `C=C(C)c1cc(C(F)(F)F)ccc1C(=O)Nc1ccc(CC(=O)OCC(C(=O)OCC)(C(=O)OCC)c2ccccc2)cc1C(=O)N(C)C` [Example 2-93], with 7.34; and `C=C(C)c1ccc(-c2ccccc2C(=O)Nc2ccc(CC(=O)OCC(C(=O)OCC)(C(=O)OCC)c3ccccc3)cc2C(=O)N(C)C)cc1` [Example 2-91], with 9.27.
Then `CCOC(=O)C(CCOC(=O)Cc1ccc(NC(=O)c2ccc(C)cc2-c2ccc(C(F)(F)F)cc2)c(C(=O)N(C)C)c1)(C(=O)OCC)c1ccccc1` [Example 2-81], with 9.02.
As to `CCOC(=O)c1cc(CC(=O)OCC(C(=O)OCC)(C(=O)OCC)c2ccccc2)ccc1NC(=O)c1ccccc1-c1ccc(C(F)(F)F)cc1` [Example 9-4, 2-(2-{3-Ethoxycarbonyl-4-[(4′-trifluoromethylbiphenyl-2-carbonyl)amino]phenyl}acetoxymethyl)-2-phenylmalonic acid diethyl ester], the pIC50 was 8.00.
Regarding `CCOC(=O)C(CCOC(=O)Cc1cccc(NC(=O)c2ccccc2-c2ccc(C(F)(F)F)cc2)c1C(=O)OC)(C(=O)OCC)c1ccccc1` [Example 5-17], the pIC50 is 8.28.
As to `CCOC(=O)C(COC(=O)Cc1ccc(NC(=O)c2ccccc2-c2ccc(C(F)(F)F)cc2)c(C(=O)N(C)C)c1)(C(=O)OCC)c1cccc(Cl)c1` [Example 2-72], the pIC50 is 9.02.
Then `CCOC(=O)C(COC(=O)Cc1ccc(OC(=O)c2ccccc2-c2ccc(C(F)(F)F)cc2)c(C(=O)N(C)C)c1)(C(=O)OCC)c1ccccc1` [Example 2-96], with 7.09; and `CCOC(=O)C(CCOC(=O)Cc1ccc(NC(=O)c2ccccc2-c2ccc(C(F)(F)F)cc2)c(C(=O)N(C)C)c1)(C(=O)OCC)c1ccccc1` [Example 2-32], with 8.77.
Then `CCOC(=O)C(COC(=O)Cc1ccc(NC(=O)c2cccc(C)c2-c2ccc(C(F)(F)F)cc2)c(C(=O)N(C)C)c1)(C(=O)OCC)c1ccccc1` [Example 2-55], with 8.38; and `CCOC(=O)C(COC(=O)Cc1ccc(NC(=O)c2ccccc2-c2ccc(C(F)(F)F)cc2)c(C(=O)N(C)C)c1)(C(=O)OCC)c1cccc(C)c1` [Example 2-69], with 9.04; and `CC(=O)OCC(COC(C)=O)(COC(=O)Cc1ccc(NC(=O)c2ccccc2-c2ccc(C(F)(F)F)cc2)c(C(=O)N(C)C)c1)c1ccccc1` [Example 2-104], with 8.45.
Then `CCOC(=O)C(COC(=O)Cc1ccc2c(c1)C(=O)N2C(=O)c1ccccc1-c1ccc(C(F)(F)F)cc1)(C(=O)OCC)c1ccccc1` [Example 9-17], with 7.64; and `CCOC(=O)C(COC(=O)Cc1ccc(NC(=O)c2ccccc2Oc2ccccc2)c(C(=O)N(C)C)c1)(C(=O)OCC)c1ccccc1` [Example 2-45], with 7.41; and `CCOC(=O)C(COC(=O)Cc1ccc(NC(=O)c2sc(C)nc2-c2ccc(C(F)(F)F)cc2)cc1)(C(=O)OCC)c1ccccc1` [Example 1-74], with 6.17.
Regarding `CCOC(=O)C(COC(=O)Cc1ccc(NC(=O)c2ccccc2-c2ccc(C(F)(F)F)cc2)c(N2CCCC2)c1)(C(=O)OCC)c1ccccc1` [Example 4-5], the pIC50 is 8.28.
Then `CN(C)C(=O)c1cc(CC(=O)OC[C@H](c2ccccc2)N2C(=O)CCC2=O)ccc1NC(=O)c1ccccc1-c1ccc(C(F)(F)F)cc1` [Example 2-26], with 8.09; and `CCOC(=O)C(COC(=O)Cc1ccc(NC(=O)c2ccc(Cl)cc2-c2ccc(C(F)(F)F)cc2)c(C(=O)N(C)C)c1)(C(=O)OCC)c1ccccc1` [Example 2-54], with 8.07; and `CCNC(=O)C(COC(=O)Cc1ccc(NC(=O)c2ccccc2-c2ccc(C(F)(F)F)cc2)c(C(C)C)c1)(C(=O)NCC)c1ccccc1` [Example 1-79], with 9.23.
Then `CCOC(=O)C(COC(=O)Cc1ccc(NC(=O)c2ccccc2-c2ccc(C)cc2)c(C(=O)N(C)C)c1)(C(=O)OCC)c1ccccc1` [Example 2-88], with 8.72.
